Tests used:
[1] = Genotoxicity of the by-product; settings: by-product of rasagiline drug substance production; no test described
[2] = AZILECT Product Label, May 2006; cited from earlier work

Compound | genotoxicity [1] | absolute bioavailability [2]
C#CCNC1CC(=O)c2ccccc21 (centres unmarked) [3-keto-N-propargyl-1-aminoindan] | not genotoxic | 
C#CCN[C@@H]1CCc2ccccc21 [rasagiline, R(+)-N-propargyl-1-aminoindan] |  | about 36%

From patent US20150045445A1, “3-KETO-N-PROPARGYL-1-AMINOINDAN” (TEVA PHARMACEUTICAL INDUSTRIES, LTD., priority 2009, published 2015)
